Values of other authors, collected in patent publication US6627614B1, “Sequential therapy comprising a 20(S)-camptothecin and an anthracycline” (priority 2002, dated 2003).

Experiments:
[1] = system: human colon cancer xenografts
[2] = not given; remark: listed apart in the source
[3] = administered intravenously, patients
[4] = system: nontumorigenic and tumorigenic human cells
[5] = system: various types of cancer, including primary cancer and metastasis; settings: patients, oral

## COc1cccc2c1C(=O)c1c(O)c3c(c(O)c1C2=O)C[C@@](O)([C@@H](O)CO)C[C@@H]3O[C@H]1C[C@H](N)[C@H](O)[C@H](C)O1 [doxorubicinol]
other
  clearance in patients with impaired hepatic function: reduced

## CC[C@@]1(O)C(=O)OCc2c1cc1n(c2=O)Cc2cc3c(N)cccc3nc2-1 [9AC, 9-Amino-20(S)-Camptothecin]
[1]
  anticancer activity against human colon cancer xenografts: high anticancer activity

## COc1cccc2c1C(=O)c1c(O)c3c(c(O)c1C2=O)C[C@@](O)(C(=O)CO)C[C@@H]3OC1CC(N)C(O)C(C)O1 (stereo partly shown) [doxorubicin]
human, in vivo
  crossing of the blood brain barrier: does not cross
other
  clearance in patients with impaired hepatic function: reduced
In 5 days
  dose appearing in the bile: Approximately 40%
Obese women with ideal body weight greater than 130%
  systemic clearance in obese women: significantly reduced
patients, intravenous injection
  initial distributive half-life: approximately 5.0 minutes
[2]; children, long term follow-up
  children with subclinical cardiac dysfunction: ≤ 40%
[2]; patients
  additional toxicity manifested by: neutropenia, thrombocytopenia, anemia, confusion and hematuria
  total cumulative dose at which irreversible cardiac toxicity may occur: ~550 mg/M^2

## CC[C@@](O)(C(=O)[O-])c1cc2n(c(=O)c1CO)Cc1cc3ccccc3nc1-2.[Na+] [20(S)-camptothecin Na^+, sodium salt of 20(S)-camptothecin]
[3]
  potency in clinical trials: low potency
  toxicity in clinical trials: high toxicity

## CC[C@@]1(O)C(=O)OCc2c1cc1n(c2=O)Cc2cc3cc4c(cc3nc2-1)OCO4 [10,11 MD, 10,11-Methylendioxy-20(S)-Camptothecin]
[1]
  anticancer activity against human colon cancer xenografts: high anticancer activity

## CC[C@@]1(O)C(=O)OCc2c1cc1n(c2=O)Cc2cc3ccccc3nc2-1 [20(S)-camptothecin]
[4]; nontumorigenic human cells in vitro
  effect on nontumorigenic cells: cytostatic
[4]; tumorigenic human cells in vitro
  effect on tumorigenic cells: cytotoxic

## CC[C@@]1(O)C(=O)OCc2c1cc1n(c2=O)Cc2cc3c([N+](=O)[O-])cccc3nc2-1 [9NC, 9-nitrocamptothecin]
Human tumor xenografts; human tumor xenograft models
  activity against human tumor xenograft models: high activity
Human tumor xenografts; immunodeficient nude mice
  growth of human tumor xenografts: inhibited the growth
Human tumor xenografts; tumors established as xenografts in nude mice
  regression of established human tumors: induced regression
[5]
  tumors known to regress after exposure: breast carcinoma, ovarian carcinoma, cholangiocarcinoma, monomyelocytic leukemia, and pancreatic carcinoma
